Assays:
[1] = target: T1, Neuropeptide Y receptor type 5 (Homo sapiens) (UniProt Q15761); assay: Tested for the inhibition of [125I]PYY binding to HEK 293 cells stably expressed with human neuropeptide NPY Y5 receptor at a concentration of 10e-8 M; assay type: cell-based; details: HEK293
T1 sequence (whole entry): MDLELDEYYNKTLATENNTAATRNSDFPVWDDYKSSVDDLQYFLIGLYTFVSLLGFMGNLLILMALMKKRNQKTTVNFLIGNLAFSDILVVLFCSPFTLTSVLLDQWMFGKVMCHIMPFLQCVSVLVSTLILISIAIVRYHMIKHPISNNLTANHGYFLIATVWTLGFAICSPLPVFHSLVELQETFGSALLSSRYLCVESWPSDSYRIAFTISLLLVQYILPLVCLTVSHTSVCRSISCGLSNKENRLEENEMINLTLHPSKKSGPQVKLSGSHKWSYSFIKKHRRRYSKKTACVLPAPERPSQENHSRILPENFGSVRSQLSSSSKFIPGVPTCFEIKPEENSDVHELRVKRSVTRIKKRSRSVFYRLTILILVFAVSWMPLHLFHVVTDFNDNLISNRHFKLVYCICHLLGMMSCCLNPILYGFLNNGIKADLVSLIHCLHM

[2] = target: T1, Neuropeptide Y receptor type 5 (Homo sapiens); assay: Tested for the inhibition of [125I]PYY binding to HEK 293 cells stably expressed with human neuropeptide NPY Y5 receptor at a concentration of 10e-9 M; assay type: cell-based; details: HEK293
[3] = target: T1, Neuropeptide Y receptor type 5 (Homo sapiens); assay: (§1) Tested for the inhibition of [125I]PYY binding to HEK 293 cells stably expressed with human neuropeptide NPY Y5 receptor at a concentration of 10e-6 M; assay type: cell-based; details: HEK293
[4] = target: T1, Neuropeptide Y receptor type 5 (Homo sapiens); assay: Tested for the inhibition of [125I]PYY binding to HEK 293 cells stably expressed with human neuropeptide NPY Y5 receptor at a concentration of 10e-7 M; assay type: cell-based; details: HEK293
[5] = target: T2, Neuropeptide Y receptor type 5 (Homo sapiens, UniProt Q15761); assay: Inhibitory concentration of total specific binding of [125I]- -PYY to HEK 293 cells transfected with the Human NPY-Y5 cDNA (compound prepared by parallel synthesis technique); assay type: cell-based, HEK293
T2 sequence (Q15761 whole entry): T1 sequence (whole entry)

[6] = target: T2, Neuropeptide Y receptor type 5; assay: Inhibitory concentration of total specific binding of [125I]- -PYY to HEK 293 cells transfected with Human NPY-Y5 cDNA (compound prepared by manual synthesis technique); assay type: cell-based, HEK293
[7] = target: T2, Neuropeptide Y receptor type 5; assay: Tested for the inhibition of [125I]PYY binding to HEK 293 cells stably expressed with human neuropeptide NPY Y5 receptor; assay type: cell-based, HEK293
[8] = Plasma concentration after oral administration of 100 mg/kg to rats; assay type: ADME, organism-based; parameters: dose 100 mg/kg, route oral; details: rat
[9] = target: T2, Neuropeptide Y receptor type 5; assay: as §1; assay type: cell-based, HEK293

| inhibition [1] | inhibition [2] | inhibition [3] | inhibition [4] | IC50 [5] | IC50 [6] | IC50 [7] | Cmax [8] | IC50 [9] | Structure (SMILES) |
| --- | --- | --- | --- | --- | --- | --- | --- | --- | --- |
| 41.1% | 5.6% | 95% | 91.4% | 1.4 nM | 4.7 nM | – | – | – | Cc1cc(O)ccc1NC(=O)C1CCN(C(=O)Cn2c(=O)sc3ccc(Cl)cc32)CC1 |
| – | – | – | – | – | – | 0.23 nM | – | – | O=C(Nc1ccc(Cl)c2ccccc12)C1CCN(C(=O)Cn2c(=O)sc3ccc(Cl)cc32)CC1 [FR-236478] |
| 83.4% | 49.3% | 108% | 99% | 0.71 nM | 17 nM | – | – | – | O=C(Nc1cccc2ccccc12)C1CCN(C(=O)Cn2c(=O)sc3ccc(Cl)cc32)CC1 |
| 89.6% | – | – | 106% | 2.6 nM | 1.3 nM | – | – | – | CCCCCCCCCCNC(=O)C1CCN(C(=O)Cn2c(=O)sc3ccc(Cl)cc32)CC1 |
| – | – | – | – | – | – | – | 15700 ng/mL | 3.3 nM | Cc1cccc(C(O)CNC(=O)C2CCN(C(=O)Cn3c(=O)sc4ccc(Cl)cc43)CC2)n1 (stereo unspecified) [FR-235208] |
| 80.5% | 45.3% | 102% | 101% | 1.4 nM | 0.89 nM | – | – | – | O=C(c1ccccc1)c1cccc(NC(=O)C2CCN(C(=O)Cn3c(=O)sc4ccc(Cl)cc43)CC2)c1 |
| 68.1% | 31.9% | 107% | 86.6% | 2.8 nM | 10 nM | – | – | – | Cc1ccc2nc(NC(=O)C3CCN(C(=O)Cn4c(=O)sc5ccc(Cl)cc54)CC3)sc2c1 |
| 68.4% | 16.5% | 86.2% | 102% | 4.7 nM | 3.8 nM | – | – | – | O=C(Nc1nc2cc(Cl)ccc2o1)C1CCN(C(=O)Cn2c(=O)sc3ccc(Cl)cc32)CC1 |
| – | – | 19.9% | – | – | – | – | – | – | O=C(NCCOS(=O)(=O)O)C1CCN(C(=O)Cn2c(=O)sc3ccc(Cl)cc32)CC1 |
| 70.3% | 29.9% | 94% | 88.5% | 2.6 nM | 2.3 nM | – | – | – | COc1ccc(NC(=O)C2CCN(C(=O)Cn3c(=O)sc4ccc(Cl)cc43)CC2)cn1 |
| 61.6% | 11.5% | 98% | 105% | 1.4 nM | 2.3 nM | – | – | – | COc1ccc(CNC(=O)C2CCN(C(=O)Cn3c(=O)sc4ccc(Cl)cc43)CC2)cc1 |
| – | – | – | 14.5% | – | – | – | – | – | COCCNC(=O)C1CCN(C(=O)Cn2c(=O)sc3ccc(Cl)cc32)CC1 |
| – | – | 77.2% | 15.6% | – | – | – | – | – | O=C(Cn1c(=O)sc2ccc(Cl)cc21)N1CCC(C(=O)N2CCc3ccccc3C2)CC1 |
| 94.5% | 53.2% | 97.2% | 99.4% | 0.85 nM | 1.5 nM | – | – | – | O=C(Nc1ccc(Oc2ccccc2)cc1)C1CCN(C(=O)Cn2c(=O)sc3ccc(Cl)cc32)CC1 |
| 76.8% | 41.5% | 100% | 98.5% | 2 nM | 0.59 nM | – | – | – | CC(=O)c1cccc(NC(=O)C2CCN(C(=O)Cn3c(=O)sc4ccc(Cl)cc43)CC2)c1 |
| – | – | – | – | – | – | 4.4 nM | – | – | O=C(Nc1ccccc1)C1CCN(C(=O)Cn2c(=O)sc3ccc(Cl)cc32)CC1 [FR-235656] |
| – | – | 87.9% | -3.9% | – | – | – | – | – | CN(CCc1ccccn1)C(=O)C1CCN(C(=O)Cn2c(=O)sc3ccc(Cl)cc32)CC1 |
| 93.2% | 52.6% | 104% | 97.7% | 0.7 nM | 0.59 nM | – | – | – | O=C(Nc1ccc(F)c(C(F)(F)F)c1)C1CCN(C(=O)Cn2c(=O)sc3ccc(Cl)cc32)CC1 |
| 43.1% | – | 43.1% | – | – | – | – | – | – | O=C(Cn1c(=O)sc2ccc(Cl)cc21)N1CCC(C(=O)N2CCc3ccccc32)CC1 |
| -3.5% | -4.5% | 51.4% | 59.8% | – | – | – | – | – | O=C(Cn1c(=O)sc2ccc(Cl)cc21)N1CCC(C(=O)N2CCCc3ccccc32)CC1 |
| 79.4% | 47.8% | 108% | 97.1% | 1.1 nM | 1.2 nM | – | – | – | O=C(NCC(O)c1ccccc1)C1CCN(C(=O)Cn2c(=O)sc3ccc(Cl)cc32)CC1 (stereo unspecified) |
| 44.7% | 19.5% | 102% | 88.8% | 9 nM | 6.1 nM | – | – | – | NS(=O)(=O)c1ccc(CCNC(=O)C2CCN(C(=O)Cn3c(=O)sc4ccc(Cl)cc43)CC2)cc1 |
| -5.3% | – | 88.8% | 67.8% | – | – | – | – | – | Cc1cccc(O)c1NC(=O)C1CCN(C(=O)Cn2c(=O)sc3ccc(Cl)cc32)CC1 |
| 74.6% | 28.7% | 84.7% | 101% | 2.9 nM | 1.7 nM | – | – | – | O=C(Nc1ccc(CCO)cc1)C1CCN(C(=O)Cn2c(=O)sc3ccc(Cl)cc32)CC1 |

Reference: ChEMBL document CHEMBL1135282, “Novel potent antagonists of human neuropeptide Y Y5 receptor. Part 1: 2-oxobenzothiazolin-3-acetic acid derivatives” (Bioorg Med Chem Lett, 2002)
